The values that follow are results of earlier work, collected in the CATMoS acute toxicity set (Mansouri et al. 2021).

Values joined by “and” are separate entries in the source; they are usually repeats but may differ in a detail not shown here. Equal entries are not always repeated.

The data set in a line: rat acute oral toxicity. The conditions noted are these: in vivo.
In the case of `Cc1c(N)nc(C)c2c1[nH]c1ccccc12`, the LD50 is 100 mg/kg.
As to `CCN1CN(CC)CN(CC)C1`, the LD50 is 316 mg/kg.
Take `OC1(c2ccc(Cl)cc2)CCNCC1`: the median lethal dose (LD50) is 465 mg/kg.
`O=C1OCc2c(Cl)c(Cl)c(Cl)c(Cl)c21`: the 50% lethal dose (LD50) was 20000 mg/kg.
As to `CCOC(=O)CS`, the LD50 is 178 mg/kg.
In the case of `O=C(CF)Nc1ccccn1`, the LD50 is 8 mg/kg.
As to `CN(C(=O)CF)c1cccc2ccccc12`, the 50% lethal dose (LD50) is 67 mg/kg.
For `CCCN(CCC)CCCCCCCCNC(=O)Oc1ccc2c(c1)[C@]1(C)CCN(C)[C@@H]1N2C`, the LD50 is 18.3 mg/kg.
For the compound `C=COCC(CC)CCCC` (stereo unspecified), the 50% lethal dose (LD50) is 1350 mg/kg.
`NC(Cl)c1nc(Cl)c(Cl)c(Cl)c1Cl` (stereo unspecified): the 50% lethal dose (LD50) is 1190 mg/kg.
Regarding `CCN(CC)CCN(CCN(CC)CC)n1cc(-c2ccc(Cl)cc2)c2cc(Cl)ccc21`, the LD50 is 780 mg/kg.
For `COc1ccc2c(c1)N(CCCN(C)C)c1ccccc1S2`, the LD50 was 730 mg/kg.
Take `Cc1ccc(C(=O)C(C)CN2CCCCC2)cc1` (stereo unspecified): the LD50 was 1450 mg/kg.
Consider `CN(C)C/C=C(/c1ccc(Br)cc1)c1cccnc1`, for which the median lethal dose (LD50) is 900 mg/kg and 844 mg/kg.
As to `FC(F)(F)c1nc2c(Br)c(Br)c(Br)cc2[nH]1`, the LD50 is 7.18 mg/kg.
`CS(=O)(=O)c1ccc2nc(C(F)(F)F)[nH]c2c1`: the 50% lethal dose (LD50) is 69 mg/kg.
As to `CC(C)=CCCC(C)=CCCC(=CCCC(C)=CCO)CO`, the median lethal dose (LD50) was 10900 mg/kg.
As to `OC[C@H]1CO[C@@H](Cc2ccccc2)O1`, the LD50 is 1720 mg/kg.
Take `C=CC(=O)OCCCCCCC`: the 50% lethal dose (LD50) was 4500 mg/kg.
As for `CC1=C(C(=O)OCOC(=O)C(C)(C)C)N2C(=O)[C@@H](NC(=O)C(N)c3ccccc3)[C@H]2SC1` (stereo partly specified), the LD50 is 4000 mg/kg.
`CCN(CC)CCCNC(=O)C(C)(C)Oc1ccc(Cl)cc1`: the median lethal dose (LD50) was 150 mg/kg.
Regarding `CC(Cl)(Cl)CCl`, the 50% lethal dose (LD50) is 1140 mg/kg.
Consider `O=C(O)Cc1ccccc1Oc1ccc(Cl)cc1Cl`, for which the LD50 was 2280 mg/kg.
On to `COC(=O)CCBr`, for which the 50% lethal dose (LD50) is 1600 mg/kg.
`O=C(O)CC1(CO)CCCCC1`: the LD50 is 20 mg/kg.
Turning to `O=C1NCCN1c1ncc([N+](=O)[O-])s1`, the LD50 is 900 mg/kg.
Consider `CCCCCCCCCc1ccc(O)cc1`, for which the median lethal dose (LD50) is 1620 mg/kg.
As for `CC(C(=O)O)c1ccc2c(c1)[nH]c1ccc(Cl)cc12` (stereo unspecified), the 50% lethal dose (LD50) was 74 mg/kg.
As to `CC(C)NP(O)(=S)Oc1cc(Cl)c(Cl)cc1Cl` (stereo unspecified), the median lethal dose (LD50) was 31 mg/kg.
Turning to `ClCC1(CCl)COC1`, the median lethal dose (LD50) was 600 mg/kg.
On to `C1CN2CCC1CC2`, for which the 50% lethal dose (LD50) is 81.2 mg/kg.
For the compound `CCCCCCCCCCO`, the 50% lethal dose (LD50) was 4720 mg/kg.
As for `CN(C)[C@@H]1C(O)=C(C(N)=O)C(=O)[C@@]2(O)C(O)=C3C(=O)c4c(O)ccc(Cl)c4[C@@H](O)[C@H]3C[C@@H]12`, the median lethal dose (LD50) is 2370 mg/kg.
As for `CCCP(=O)(CCC)CCC`, the 50% lethal dose (LD50) was 1410 mg/kg.
Take `Clc1cc2c(c(Cl)c1Cl)Oc1cc(Cl)c(Cl)c(Cl)c1O2`: the median lethal dose (LD50) was 0.887 mg/kg.
Take `Nc1ccncc1`: the median lethal dose (LD50) was 32 mg/kg.
With `CN1CCC(OC(=O)COc2ccc(Cc3ccc(Cl)cc3)cc2)CC1`, the LD50 is 1900 mg/kg.
Consider `O=Cc1ccc([N+](=O)[O-])cc1`, for which the 50% lethal dose (LD50) is 4700 mg/kg.
For the compound `CNCCCN1c2ccccc2CCc2ccccc21`, the LD50 was 375 mg/kg and 871 mg/kg.
On to `C[n+]1cc2c3c(ccc2c2ccc4cc5c(cc4c21)OCO5)OCO3`, for which the LD50 is 1660 mg/kg.
Turning to `COC(COC(N)=O)C1=C(N2CC2)C(=O)C(C)=C(N2CC2)C1=O` (stereo unspecified), the LD50 is 27.3 mg/kg.
Regarding `CCSCCSP(=S)(OC)OC`, the LD50 was 40 mg/kg.
With `C=CCn1c(N)cc(=O)n(CC)c1=O`, the median lethal dose (LD50) was 2300 mg/kg.
`O=C1N(Cc2ccccc2)C2C[S+]3CCCC3C2N1Cc1ccccc1` (stereo unspecified): the LD50 was 2490 mg/kg.
Take `O=C(CF)NC(=O)Nc1ccccc1`: the LD50 was 25 mg/kg.
As for `NC(=O)OC[C@H](O)[C@@H](O)[C@H](N)C(=O)N[C@@H](C(=O)O)[C@H]1O[C@@H](n2cc(CO)c(=O)[nH]c2=O)[C@H](O)[C@@H]1O`, the LD50 is 14700 mg/kg.
On to `O=C(O)C(=O)C(O)=C(O)O`, for which the LD50 is 6000 mg/kg.
As to `C[N+](C)(C)CCI`, the LD50 was 700 mg/kg.
Turning to `Cc1cc(N)ccc1S(=O)(=O)NCCO`, the 50% lethal dose (LD50) is 8900 mg/kg.
For `N=C(N)SCc1ccc([N+](=O)[O-])cc1`, the LD50 was 300 mg/kg.
On to `CCN(CC)CCN(C)n1cc(-c2ccccc2)c2ccccc21`, for which the LD50 is 650 mg/kg.
For the compound `CCS(=O)(=O)CCn1c([N+](=O)[O-])cnc1C`, the 50% lethal dose (LD50) was 2710 mg/kg.
On to `Cc1cc(F)ccc1NC(=O)c1cc(Cl)cc(-c2ccc(Cl)cc2)c1O`, for which the median lethal dose (LD50) was 2510 mg/kg.
Take `CC1NC(=O)c2ccccc2O1` (stereo unspecified): the LD50 was 1020 mg/kg.
Consider `CN(C)N=Nc1cccc(C(N)=O)c1`, for which the 50% lethal dose (LD50) was 54 mg/kg.
For `CC1=NN(C(=N)N=C(N)N)C(C)(C)C1`, the LD50 was 4090 mg/kg.
On to `ClC=C(Cl)c1ccccc1`, for which the LD50 was 4000 mg/kg.
As for `CN(C)c1ccc(N=Nc2ccccc2)cc1`, the LD50 was 200 mg/kg.
In the case of `CCOP(=S)(OCC)Oc1ccc([N+](=O)[O-])cc1Cl`, the LD50 is 10 mg/kg.
As to `CCOP(=S)(OCC)SCS(=O)(=O)CC`, the LD50 was 1.2 mg/kg.
Regarding `Oc1c(Cl)c(Cl)cc(Cl)c1Cc1c(Cl)cc(Cl)c(Cl)c1O`, the median lethal dose (LD50) is 100 mg/kg.
